Among the data in ChEMBL document CHEMBL5209584, “Membrane potential based assay for SLC15A2 using HEK-293 SLC15A2 OE cells” (2022) are EC50 values, retold here.

Several values for one entry are separate records, joined by “and”; a condition that tells them apart may be missing. Equal values may be shown once. Square brackets hold non-standard residues; d marks the D form. Peptide text beside a SMILES is read from it. Sar = CNCC(=O)O

In the assay the target is T1, Solute carrier family 15 member 2 (Homo sapiens, UniProt Q16348).
T1 sequence (Q16348 whole entry): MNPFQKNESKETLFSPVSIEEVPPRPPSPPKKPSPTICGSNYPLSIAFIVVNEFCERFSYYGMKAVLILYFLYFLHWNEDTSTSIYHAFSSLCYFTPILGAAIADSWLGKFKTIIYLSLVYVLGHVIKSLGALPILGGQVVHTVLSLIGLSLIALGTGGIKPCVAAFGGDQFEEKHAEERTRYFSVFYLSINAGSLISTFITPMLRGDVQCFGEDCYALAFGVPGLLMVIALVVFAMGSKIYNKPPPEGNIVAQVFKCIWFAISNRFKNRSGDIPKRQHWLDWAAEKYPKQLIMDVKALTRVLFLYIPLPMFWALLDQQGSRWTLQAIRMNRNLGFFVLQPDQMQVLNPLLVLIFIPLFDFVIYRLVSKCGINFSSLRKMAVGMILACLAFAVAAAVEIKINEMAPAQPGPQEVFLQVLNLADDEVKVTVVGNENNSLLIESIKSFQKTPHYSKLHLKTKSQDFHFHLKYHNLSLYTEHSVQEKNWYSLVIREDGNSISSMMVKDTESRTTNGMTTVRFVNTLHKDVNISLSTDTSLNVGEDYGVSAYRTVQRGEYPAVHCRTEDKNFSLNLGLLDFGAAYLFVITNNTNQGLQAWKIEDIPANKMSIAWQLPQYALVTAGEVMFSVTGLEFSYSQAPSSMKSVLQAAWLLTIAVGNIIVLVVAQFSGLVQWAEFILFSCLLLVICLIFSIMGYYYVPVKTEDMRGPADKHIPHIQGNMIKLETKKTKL
Briefly: Substrate uptake by the Peptide Transporter 2 (PEPT2, SLC15A2) as assessed by the fluorescent FLIPR membrane potential dye in HEK-293 JumpIN-SLC15A2 cells (PubChem AID: 1794819). It counts as functional, cell-based, HEK293.

Compound `NCCC(=O)N[C@@H](Cc1cnc[nH]1)C(=O)O` [CARNOSINE] gave an EC50 of 28 µM.
On to `CN(CC(=O)O)C(=O)CN` [GLYCYLSARCOSINE] (H-Gly-[Sar]-OH), for which the EC50 was 123 µM and 39 µM.

In general, EC50 refers to the concentration needed to bring the measured effect to its halfway point. A higher EC50 goes with lower potency in that assay.
